According to paper PMC7601674, “CoQ10 Deficient Endothelial Cell Culture Model for the Investigation of CoQ10 Blood–Brain Barrier Transport” (Journal of Clinical Medicine, 2020):
Blank lines part the entries; values can stand above or below the molecule they belong to.

What was measured:
bEnd.3 BBB model = settings: cited from earlier work
[1] = test system: bEnd.3 cells (mouse BBB cell line) monolayer; experiment: CoQ10 transport assay across bEnd.3 monolayer on Transwell filters (control or pABA treated); settings: for Effect on Basal to Apical transport of CoQ10: antioxidant 50 µM co-administered with CoQ10 10 µM; for Effect on B to A transport of CoQ10: pABA treated bEnd.3, antioxidant 50 µM; for A to B CoQ10 transport, % of control / Apical to Basal CoQ10 transport, % of control: BLT-1 10 µM, FPS-ZM1 1 µM; for A to B CoQ10 transport, % of control: verapamil 0.1 mM, added 2 h before, 60 min; for Apical to Basal CoQ10 transport, % of control: RAP 0.5 µM
Experimental: (§1) Unless stated, CoQ10 was pre-treated by incubation in serum at a concentration of 20 µM for 45 min at 37 °C, and added to assay buffer on either the Apical (blood facing) or Basal (brain facing) side of the cells on Transwell filters. The final concentration of CoQ10 used in the assays was 10 µM in serum (50% v/v). Cells were then incubated for 60 min on an orbital shaker (100 rpm) at 37 °C. Samples of the Apical (A) and Basal (B) media were then taken for analysis to calculate A to B (blood-to-brain) or B to A (brain-to-blood) Papp in cm/s, as previously described by Patabendige et al.. CoQ10 concentrations were determined using the LC-MS/MS method described above (Section 2.2).
(§2) Inhibitors of transport were added to both Apical and Basal sides of the cells for 2 h prior to assay. Antioxidants were pre-incubated with CoQ10 in serum for 45 min prior to assay, and were present in the assay buffer. Compounds used were; SR-B1 inhibitor, blocker of lipid transport-1 (BLT-1; 10 µmol/L)
(§3) As previously described, para-aminobenzoic acid (pABA) was used as a pharmacological reagent to induce CoQ10 deficiency. The mechanism of action is via competitive inhibition of polyprenyl-4-hydroxybenzoate transferase (Coq2p), a key enzyme in the later stages of the CoQ10 biosynthetic pathway. Following the method of Duberley et al., 1 mmol/L pABA was added to culture medium for 5 days prior to assay.

[2] = test system: PBEC cellular CoQ10 content; experiment: Cellular CoQ10 depletion by pABA, PBEC; format: cell-based, porcine
Experimental: (§4) Final CoQ10 concentrations (nmol/L) were calculated as a ratio of CoQ10/CoQ10–[^2H9] peak areas, and quantified against the corresponding calibration curve, with appropriate correction for dilution. For intracellular determination of CoQ10 the concentration was divided by total protein (mg/mL) and expressed as pmol/mg (nmol/g) of protein.

[3] = test system: bEnd.3 cellular CoQ10 content; experiment: Cellular CoQ10 depletion by pABA, bEnd.3; format: cell-based, mouse
Experimental: as §4

MRC complex II-III = experiment: Mitochondrial respiratory chain enzyme activity, complex II-III; format: cell-based, mouse
Experimental: (§5) Activities of the mitochondrial respiratory chain enzymes; complex I, complex II-III and complex IV together with the mitochondrial marker enzyme, and citrate synthase (EC 2.3.3.1) were determined spectrophotometrically on a Uvikon XL spectrophotometer with LabPower software (Version 2.06S, Northstar Scientific Ltd., Potton, UK) according to the method previously described by Hargreaves et al.. Results were expressed as a ratio to citrate synthase activity, a validated biomarker of mitochondrial content, and were normalised against mg protein. Protein quantification was determined according to the Lowry method using BSA as a standard.

MRC complex IV = experiment: Mitochondrial respiratory chain enzyme activity, complex IV; format: cell-based, mouse; settings: bEND.3, 1 mM pABA 5 days
Experimental: as §5

bEND.3 cells = experiment: MTT cell viability assay; format: cell-based, mouse; settings: pABA up to 1 mM, 5 days
Experimental: Cell viability was determined using the MTT assay described by Mosmann. Cells were passaged onto 96-well plates, grown to confluence and washed with HBSS prior to the addition of 3-[4,5-dimethylthiazol-2-yl]-2,5-diphenyl tetrazolium bromide (MTT; 1 mg/mL) in DMEM (without phenol red). Cells were then incubated for 4 h at 37 °C, 5% CO2, after which the medium was removed, and the remaining formazan crystals dissolved in propan-2-ol (100 μL/well). The resulting purple solution was spectrophotometrically measured at 540 nm using a Multiskan Ascent plate reader with Ascent software (MTX LabSystems, USA).

[4] = test system: claudin-5 tight junction protein in PBEC; experiment: Confocal microscopy of claudin-5; format: cell-based, porcine; settings: PBEC after 5 days pABA (1 mM)
Experimental: Cells for confocal microscopy were fixed in paraformaldehyde (4% w/v in PBS) for 45 min, washed with HBSS and stored in glycerol (70% v/v in PBS) until use. Cells were permeabilised with Triton-x 100 (0.1% v/v in PBS), incubated with anti-Claudin 5 Monoclonal Antibody (4C3C2) Alexa Fluor 488 (1 in 80 dilution in DAKO, overnight, 4 °C, Thermofisher) to visualise tight junctions. Samples were then mounted in Vectashield containing DAPI for nuclei staining. The Nikon A1 inverted confocal microscope was used with spectral detector and Eclipse Ti-E microscope at ×40 magnification to generate digital images, analysed using Fiji (ImageJ).

[5] = test system: citrate synthase (EC 2.3.3.1); experiment: Citrate synthase activity; format: cell-based, mouse; settings: bEND.3, 1 mM pABA 5 days
Experimental: as §5

MRC complex I = experiment: Mitochondrial respiratory chain enzyme activity, complex I; format: cell-based, mouse
Experimental: as §5

[6] = test system: PBEC tight junction integrity; experiment: Transendothelial electrical resistance (TEER) of PBEC monolayer; format: cell-based, porcine; settings: PBEC after 5 days pABA (1 mM); control 856 ± 71; n = 6
Experimental: (§6) Primary porcine brain endothelial cells (PBEC) were isolated and cultured as previously published. Briefly, cells were seeded at 10 × 10^4 cells/cm^2 on collagen and fibronectin-coated polycarbonate Transwell filters (Corning 0.4 µm pore size) in 12-well plates, and grown in low glucose DMEM (Sigma D5546) supplemented with bovine plasma-derived serum (10% v/v; BPDS, First Link UK), glutamine (2 mM), heparin (125 µg/mL), penicillin (100 U/mL) and streptomycin (100 µg/mL), at 37 °C in a 5% CO2 incubator. PBECs were grown in non-contact co-culture above primary rat astrocytes until confluent, then supplemented with hydrocortisone (550 nM), 8-4-chlorophenylthio-cAMP (250 µM) and RO-20-1724 (17.5 µM) in serum-free medium for a further 3 days. Before assays of CoQ10 transport, PBECs were separated from astrocytes by moving transwell filters to fresh culture plates.
as §3

[7] = design: method as in PMID 11259830; settings: cited from earlier work
[8] = test system: primary porcine brain endothelial cells (PBEC) monolayer; experiment: CoQ10 transport assay across PBEC monolayer on Transwell filters; settings: PBEC; RAP 0.5 µM applied to the basal (brain side)
Experimental: as §6, §1, §2

[9] = pABA treated (1 mM; 5 days) bEnd.3
[10] = bEND.3, 1 mM pABA 5 days, ratio to citrate synthase

Molecule: N#CC(C#N)=NNc1ccc(OC(F)(F)F)cc1 [FCCP]
- Permeability to FITC-dextran (bEnd.3 BBB model): doubled

Molecule: Cc1c(C)c2c(c(C)c1O)CC[C@@](C)(CCC[C@H](C)CCC[C@H](C)CCCC(C)C)O2 [α-tocopherol]
- Effect on Basal to Apical transport of CoQ10 ([1]; control bEnd.3): increased Basal to Apical transport of CoQ10
- Effect on B to A transport of CoQ10 [1]: enhanced B to A transport

Molecule: CC[C@H]1/C=C/C=C/C[C@@H](C)[C@H](O)[C@@](C)(O)C(=O)[C@@H](C)[C@H](O)[C@@H](C)C(=O)[C@@H](C)[C@H](O)[C@@H](C)/C=C/C(=O)O[C@@H]2[C@H](C)[C@H](CC1)O[C@]1(CC[C@H](C)[C@H](C[C@@H](C)O)O1)[C@H]2C [oligomycin]
- Permeability to FITC-dextran (bEnd.3 BBB model): doubled

Molecule: Cc1c(C)c2c(c(C)c1O)CCC(C)(C(=O)O)O2 (stereo not drawn) [Trolox]
- Effect on Basal to Apical transport of CoQ10 ([1]; control bEnd.3): increased Basal to Apical transport of CoQ10
- Effect on B to A transport of CoQ10 [1]: enhanced B to A transport

Molecule: C=C(C)[C@H]1Cc2c(ccc3c2O[C@@H]2COc4cc(OC)c(OC)cc4[C@@H]2C3=O)O1 [rotenone]
- Permeability to FITC-dextran (bEnd.3 BBB model): doubled

Molecule: O=C(c1ccc(Cl)cc1)N(Cc1ccccc1)C1CCCCC1 [FPS-ZM1]
- Effect on “net” transport of CoQ10 ([1]; control bEnd.3): “net” −ve transport
- A to B CoQ10 transport, % of control ([1]; control bEnd.3): 50 % of control
- Effect on “net” transport of CoQ10 [1, 9]: abolished “net” A to B transport
- Apical to Basal CoQ10 transport, % of control [1, 9]: 45 % of control

Molecule: CCCCCCC1CCCC1=NNC(N)=S (stereo not drawn) [BLT-1, blocker of lipid transport-1]
- Effect on “net” transport of CoQ10 ([1]; control bEnd.3): “net” −ve transport
- A to B CoQ10 transport, % of control ([1]; control bEnd.3): 44 % of control
- Effect on “net” transport of CoQ10 [1, 9]: no significant effect
- Apical to Basal CoQ10 transport, % of control [1, 9]: no effect

Molecule: Nc1ccc(C(=O)O)cc1 [pABA, para-aminobenzoic acid]
- Depletion of cellular CoQ10 relative to controls ([2]; 1 mM pABA 5 days, n = 4): 36%
- Cellular CoQ10, % of control ([2]; pABA 1 mmol/L 5 days): 36 % of control
- Depletion of cellular CoQ10 relative to controls ([3]; bEnd.3, 1 mM pABA 5 days, n = 4): 43%
- Cellular CoQ10, % of control ([3]; bEnd.3, pABA 1 mmol/L 5 days): 57 % of control
- Decrease in MRC complex II-III activity (MRC complex II-III; [10]): 72%
- MRC complexes II-III activity, % of control (MRC complex II-III; bEnd.3, pABA 1 mmol/L 5 days): 28 % of control
- MRC complex IV activity, % of control (MRC complex IV): 80 % of control
- Cell viability (bEND.3 cells): no change in cell viability
- Claudin-5 localisation [4]: re-location of claudin-5 tight junction protein away from the cell membrane
- Citrate synthase activity [5]: no significant change
- Decrease in MRC complex I activity (MRC complex I; [10]): 68%
- MRC complex I activity, % of control (MRC complex I; bEnd.3, pABA 1 mmol/L 5 days): 32 % of control
- Transendothelial electrical resistance (TEER) [6]: 49 ± 9 Ω · cm^2

- Permeability (Papp) compared to CoQ10, A to B direction [1]: 280 ×
- Permeability (Papp) compared to CoQ10, B to A direction [1]: 150 ×
Molecule: COC1=C(OC)C(=O)C(CCCCCCCCCCO)=C(C)C1=O [idebenone]
- Direction of transport [1]: transport toward the brain side (A to B) greater than efflux to blood (B to A)
- LogP [7]: less than 5

B1: receptor-associated protein (protein, UniProt P30533 35-357, looked up)
Alpha-2-macroglobulin …: YSREKNQPKPSPKRESGEEFRMEKLNQLWEKAQRLHLPPVRLAELHADLKIQERDELAWKKLKLDGLDEDGEKEARLIRNLNVILAKYGLDGKKDARQVTSNSLSGTQEDGLDDPRLEKLWHKAKTSGKFSGEELDKLWREFLHHKEKVHEYNVLLETLSRTEEIHENVISPSDLSDIKGSVLHSRHTELKEKLRSINQGLDRLRRVSHQGYSTEAEFEEPRVIDLWDLAQSANLTDKELEAFREELKHFEAKIEKHNHYQKQLEIAHEKLRHAESVGDGERVSRSREKHALLEGRTKELGYTVKKHLQDLSGRISRARHNEL
- Effect on “net” transport of CoQ10 ([1]; control bEnd.3): “net” +ve transport toward the brain side (A to B)
- Effect on “net” transport of CoQ10 [1, 9]: enhanced “net” +ve transport toward the brain side
- Apical to Basal CoQ10 transport, % of control [1, 9]: 164 % of control
- Effect on B-to-A CoQ10 efflux [8]: inhibited the B-to-A efflux
